In patent US11696914B1 (priority 2019, dated 2023):

Biological target: Zaire ebolavirus disulfide-linked glycoprotein heterodimer (GP1-GP2) (Zaire ebolavirus, UniProt Q05320)
Assay: biochemical
Format: binding

Zaire ebolavirus disulfide-linked glycoprotein heterodimer (GP1-GP2), sequence (Q05320 33-501 limits assumed): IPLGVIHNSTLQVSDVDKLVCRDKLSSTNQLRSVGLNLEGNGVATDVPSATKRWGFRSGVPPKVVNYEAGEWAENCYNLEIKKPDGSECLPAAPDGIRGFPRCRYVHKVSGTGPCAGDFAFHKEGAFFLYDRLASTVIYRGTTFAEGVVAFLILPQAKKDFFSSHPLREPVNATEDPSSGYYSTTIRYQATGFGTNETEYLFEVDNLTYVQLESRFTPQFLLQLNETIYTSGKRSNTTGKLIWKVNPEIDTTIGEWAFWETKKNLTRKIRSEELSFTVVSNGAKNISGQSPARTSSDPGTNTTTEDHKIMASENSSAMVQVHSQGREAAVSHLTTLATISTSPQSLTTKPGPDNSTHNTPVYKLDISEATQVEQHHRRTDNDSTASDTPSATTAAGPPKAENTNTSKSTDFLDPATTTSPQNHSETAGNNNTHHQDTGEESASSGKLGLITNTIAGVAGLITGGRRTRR
Zaire ebolavirus disulfide-linked glycoprotein heterodimer (GP1-GP2), sequence (Q05320 502-676 limits assumed): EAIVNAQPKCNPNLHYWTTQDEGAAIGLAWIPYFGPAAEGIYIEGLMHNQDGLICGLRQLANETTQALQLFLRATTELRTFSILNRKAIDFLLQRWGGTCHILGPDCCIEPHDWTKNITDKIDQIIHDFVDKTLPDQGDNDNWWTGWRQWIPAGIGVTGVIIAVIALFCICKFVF

Row | SMILES | binds to EBOV glycoprotein | Kd
1 | C[C@H]1[C@H](OC(=O)CCC(=O)O)O[C@@H]2O[C@@]3(C)CC[C@H]4[C@H](C)CC[C@@H]1[C@@]24OO3 [Artesunate] | did not | –
2 | NC(=O)c1nc(F)c[nH]c1=O [Favipiravir] | did not | –
3 | COc1ccc2nc3cc(Cl)ccc3c(Nc3cc(CN4CCCC4)c(O)c(CN4CCCC4)c3)c2n1 [Pyronaridine, 4-[(7-Chloro-2-methoxybenzo[b][1,5]naph-thyridin-10-yl)amino]-2,6-bis(1-pyrrolidinylmethyl)phenol phosphate (1:4)] | – | 7.34 µM
4 | CCN(CC)CCCC(C)Nc1c2ccc(Cl)cc2nc2ccc(OC)cc12 (centres unmarked) [Quinacrine] | – | 7.55 µM
5 | CCN(CC)CCOc1ccc2c(c1)C(=O)c1cc(OCCN(CC)CC)ccc1-2 [Tilorone] | – | 0.73 µM
